Data from ChEMBL document CHEMBL4819004, “Discovery of selective CDK9 degraders with enhancing antiproliferative activity through PROTAC conversion” (Eur J Med Chem, 2021).

Experiments:
[1] = molecular target: CDK9/cyclin T1 (Homo sapiens, UniProt P50750); test: Inhibition of CDK9/cyclin T (unknown origin) using YSPTSPSYSPTSPSYSPTSPKKK or histone H1 as substrate incubated for 2 hrs in presence of [gamma-33P]ATP by radioactive filter binding assay; assay type: protein-complex assay
[2] = system: MCF7; test: Antiproliferative activity against human MCF7 cells incubated for 72 hrs by MTT assay; assay type: functional, cell-based; details: MCF7, 72 h
[3] = system: HepG2; test: Antiproliferative activity against human HepG2 cells incubated for 72 hrs by MTT assay; assay type: functional, cell-based; details: HepG2, 72 h
[4] = system: MV4-11; test: Antiproliferative activity against human MV4-11 cells incubated for 72 hrs by MTT assay; assay type: functional, cell-based; details: MV4-11, 72 h
[5] = system: HCT-116; test: Antiproliferative activity against human HCT-116 cells incubated for 72 hrs by MTT assay; assay type: functional, cell-based; details: HCT-116, 72 h
[6] = system: MOLM-13; test: Antiproliferative activity against human MOLM-13 cells incubated for 72 hrs by MTT assay; assay type: functional, cell-based; details: MOLM-13, 72 h
[7] = molecular target: T1, Protein cereblon/Cyclin-dependent kinase 9 (Homo sapiens, UniProt P50750+Q96SW2); test: Protac activity at CRBN/CDK9 in human MV4-11 cells assessed as CDK9 degradation rate at 500 nM incubated for 6 hrs by Western blot assay relative to control; assay type: cell-based
Target sequence in this assay (P50750 whole entry, looked up): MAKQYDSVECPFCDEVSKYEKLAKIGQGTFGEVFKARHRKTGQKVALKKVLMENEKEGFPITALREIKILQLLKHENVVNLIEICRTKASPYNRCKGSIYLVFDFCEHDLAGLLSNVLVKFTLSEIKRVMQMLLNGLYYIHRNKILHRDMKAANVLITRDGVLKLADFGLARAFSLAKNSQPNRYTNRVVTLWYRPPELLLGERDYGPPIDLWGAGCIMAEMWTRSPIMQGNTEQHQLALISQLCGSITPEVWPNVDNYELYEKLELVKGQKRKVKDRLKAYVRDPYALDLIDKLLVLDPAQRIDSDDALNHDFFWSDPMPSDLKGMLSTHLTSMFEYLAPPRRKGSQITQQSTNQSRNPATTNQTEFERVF
Target sequence in this assay (Q96SW2 whole entry, looked up): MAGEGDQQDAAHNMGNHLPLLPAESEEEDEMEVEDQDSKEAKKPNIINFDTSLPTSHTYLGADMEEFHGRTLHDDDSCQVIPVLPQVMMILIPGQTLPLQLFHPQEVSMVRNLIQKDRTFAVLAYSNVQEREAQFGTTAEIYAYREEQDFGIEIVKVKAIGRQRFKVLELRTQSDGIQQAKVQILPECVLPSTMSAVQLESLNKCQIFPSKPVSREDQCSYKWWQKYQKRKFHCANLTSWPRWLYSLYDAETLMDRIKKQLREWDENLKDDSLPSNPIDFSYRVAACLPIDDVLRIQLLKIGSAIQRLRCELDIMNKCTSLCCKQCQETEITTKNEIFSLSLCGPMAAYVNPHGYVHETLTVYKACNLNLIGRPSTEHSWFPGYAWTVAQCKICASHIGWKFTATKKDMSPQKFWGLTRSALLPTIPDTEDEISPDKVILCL

[8] = system: A549; test: Antiproliferative activity against human A549 cells incubated for 72 hrs by MTT assay; assay type: functional, cell-based; details: A549, 72 h
[9] = molecular target: T1, Protein cereblon/Cyclin-dependent kinase 9; test: Protac activity at CRBN/CDK9 in human MOLM-13 cells assessed as CDK9 degradation rate at 500 nM incubated for 6 hrs by Western blot assay relative to control; assay type: cell-based
Target sequence in this assay (P50750 whole entry, looked up): as the sequence (P50750 whole entry, looked up) above
Target sequence in this assay (Q96SW2 whole entry, looked up): as the sequence (Q96SW2 whole entry, looked up) above

[10] = system: B16; test: Antiproliferative activity against mouse B16 cells incubated for 72 hrs by MTT assay; assay type: functional, cell-based; details: B16, 72 h
[11] = molecular target: T1, Protein cereblon/Cyclin-dependent kinase 9; test: Protac activity at CRBN/CDK9 in human MV4-11 cells assessed as induction of CDK9 degradation incubated for 6 hrs by Western blot assay; assay type: cell-based
Target sequence in this assay (P50750 whole entry): as the sequence (P50750 whole entry, looked up) above
Target sequence in this assay (Q96SW2 whole entry): as the sequence (Q96SW2 whole entry, looked up) above

[12] = system: MV4-11; test: Induction of apoptosis in human MV4-11 cells assessed as late apoptotic cells at 500 nM after 6 hrs by AnnexinV-FITC/propidium iodide staining based flow cytometry (reference value: 4.29%); assay type: functional
[13] = system: MV4-11; test: Induction of apoptosis in human MV4-11 cells assessed as viable cells at 500 nM after 6 hrs by AnnexinV-FITC/propidium iodide staining based flow cytometry (reference value: 90.1 %); assay type: functional; details: read-out: Activity
[14] = system: MV4-11; test: Induction of apoptosis in human MV4-11 cells assessed as early apoptotic cells at 500 nM after 6 hrs by AnnexinV-FITC/propidium iodide staining based flow cytometry (reference value: 5.36 %); assay type: functional
[15] = system: MV4-11; test: Induction of apoptosis in human MV4-11 cells assessed as total apoptotic cells at 500 nM after 6 hrs by AnnexinV-FITC/propidium iodide staining based flow cytometry (reference value: 9.75 %); assay type: functional
[16] = system: MV4-11; test: Induction of apoptosis in human MV4-11 cells assessed as necrotic cells at 500 nM after 6 hrs by AnnexinV-FITC/propidium iodide staining based flow cytometry (reference value: 0.16 %); assay type: functional

Chain of CDK9/cyclin T1 (O60563 whole entry): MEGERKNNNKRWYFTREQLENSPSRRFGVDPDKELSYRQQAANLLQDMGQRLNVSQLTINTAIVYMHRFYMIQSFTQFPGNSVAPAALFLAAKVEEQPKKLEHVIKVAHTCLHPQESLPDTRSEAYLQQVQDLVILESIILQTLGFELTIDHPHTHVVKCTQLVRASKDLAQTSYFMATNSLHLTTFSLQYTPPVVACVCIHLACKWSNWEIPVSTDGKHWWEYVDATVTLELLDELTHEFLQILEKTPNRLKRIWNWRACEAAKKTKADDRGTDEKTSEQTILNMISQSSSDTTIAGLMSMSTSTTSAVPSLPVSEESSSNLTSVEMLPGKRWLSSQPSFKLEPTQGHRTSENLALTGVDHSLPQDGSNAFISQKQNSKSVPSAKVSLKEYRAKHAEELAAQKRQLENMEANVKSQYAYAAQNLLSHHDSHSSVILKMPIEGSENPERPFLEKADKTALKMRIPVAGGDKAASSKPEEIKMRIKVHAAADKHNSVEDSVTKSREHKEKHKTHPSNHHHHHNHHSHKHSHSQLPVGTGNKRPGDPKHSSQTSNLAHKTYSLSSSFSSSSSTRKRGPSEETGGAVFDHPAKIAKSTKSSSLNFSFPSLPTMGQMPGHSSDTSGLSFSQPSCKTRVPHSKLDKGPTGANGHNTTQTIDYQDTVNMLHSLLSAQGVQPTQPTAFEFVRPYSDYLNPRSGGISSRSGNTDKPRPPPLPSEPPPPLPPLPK
Chain of CDK9/cyclin T1 (P50750 whole entry): as the sequence (P50750 whole entry, looked up) above

Row | Structure (SMILES) | IC50 [1] [µM] | IC50 [2] [µM] | IC50 [3] [µM] | IC50 [4] [µM] | IC50 [5] [µM] | IC50 [6] [µM] | Activity [7] [%] | IC50 [8] [µM] | Activity [9] [%] | IC50 [10] [µM] | DC50 [11] [µM] | Activity [12] [%] | viability at 0.5 µM [13] [%] | Activity [14] [%] | Activity [15] [%] | Activity [16] [%]
1 | COc1cc(N2CCN(CCCCCC(=O)NCCNc3cccc4c3C(=O)N(C3CCC(=O)NC3=O)C4=O)CC2)ccc1-c1ncnc(Nc2cccc(CS(C)(=N)=O)c2)n1 (configuration not stated) | 8.11 | > 50 | > 50 | 7.71 | > 50 | > 50 | 62 | > 50 | 24 | > 50 |  |  |  |  |  | 
2 | COc1cc(F)ccc1-c1ncnc(Nc2cccc(CS(C)(=O)=NC(=O)CCc3cn(CCCCCCCC(=O)NCCNc4cccc5c4C(=O)N(C4CCC(=O)NC4=O)C5=O)nn3)c2)n1 (configuration not stated) | 0.00925 | 11.4 | 4.65 | 0.18 | 5.51 | 0.2 | 100 | 4.14 | 100 | 3.07 | 0.0103 |  |  |  |  | 
3 | COc1cc(F)ccc1-c1ncnc(Nc2cccc(CS(C)(=O)=NC(=O)CCC(=O)CCC(=O)NCCCCCNc3cccc4c3C(=O)N(C3CCC(=O)NC3=O)C4=O)c2)n1 (configuration not stated) | 0.0857 | 15.5 | 8.58 | 1.1 | 4.77 | 0.74 | 67 | 11.1 | 45 | 8.64 |  |  |  |  |  | 
4 | COc1cc(N2CCN(CCCCCCCCCC(=O)NCCNc3cccc4c3C(=O)N(C3CCC(=O)NC3=O)C4=O)CC2)ccc1-c1ncnc(Nc2cccc(CS(C)(=N)=O)c2)n1 (configuration not stated) | 6.34 | > 50 | > 50 | 2.6 | > 50 | > 50 | 44 | > 50 | 49 | > 50 |  |  |  |  |  | 
5 | COc1cc(N2CCN(CCCCCCC(=O)NCCNc3cccc4c3C(=O)N(C3CCC(=O)NC3=O)C4=O)CC2)ccc1-c1ncnc(Nc2cccc(CS(C)(=N)=O)c2)n1 (configuration not stated) | 6.56 | > 50 | > 50 | 3.8 | > 50 | > 50 | 52 | > 50 | 7 | > 50 |  |  |  |  |  | 
6 | COc1cc(N2CCN(CCCCCCCC(=O)NCCNc3cccc4c3C(=O)N(C3CCC(=O)NC3=O)C4=O)CC2)ccc1-c1ncnc(Nc2cccc(CS(C)(=N)=O)c2)n1 (configuration not stated) | 6.87 | > 50 | > 50 | 4.9 | > 50 | > 50 | 33 | > 50 | 23 | > 50 |  |  |  |  |  | 
7 | COc1cc(F)ccc1-c1ncnc(Nc2cccc(CS(C)(=O)=NC(=O)CCCC(=O)NCCNc3cccc4c3C(=O)N(C3CCC(=O)NC3=O)C4=O)c2)n1 (configuration not stated) | 0.0127 | 24.8 | 19.1 | 0.46 | 20.6 | 2.8 | 100 | 35.6 | 99 | 22.1 | 0.0273 |  |  |  |  | 
8 | COc1cc(F)ccc1-c1ncnc(Nc2cccc(CS(C)(=O)=NC(=O)CCc3cn(CCCCCC(=O)NCCNc4cccc5c4C(=O)N(C4CCC(=O)NC4=O)C5=O)nn3)c2)n1 (configuration not stated) | 0.0114 | 24.5 | 10.3 | 0.72 | 16.4 | 0.99 | 88.8 | 8.35 | 66 | 16.2 |  |  |  |  |  | 
9 | COc1cc(F)ccc1-c1ncnc(Nc2cccc(CS(C)(=O)=NC(=O)COCCOCCOCC(=O)NCCNc3cccc4c3C(=O)N(C3CCC(=O)NC3=O)C4=O)c2)n1 (configuration not stated) | 0.0149 | 20.8 | 17.5 | 0.27 | 12.2 | 0.65 | 51 | 13.2 | 0 | 18.4 |  |  |  |  |  | 

These reach a lower IC50 [2]. Values come first.

Row | IC50 [1] [µM] | IC50 [2] [µM] | IC50 [3] [µM] | IC50 [4] [µM] | IC50 [5] [µM] | IC50 [6] [µM] | Activity [7] [%] | IC50 [8] [µM] | Activity [9] [%] | IC50 [10] [µM] | DC50 [11] [µM] | Structure (SMILES) | Activity [12] [%] | viability at 0.5 µM [13] [%] | Activity [14] [%] | Activity [15] [%] | Activity [16] [%]
10 | 0.00935 | 10.2 | 8.51 | 0.25 | 3.1 | 0.48 | 100 | 6.15 | 99 | 3.35 |  | COc1cc(F)ccc1-c1ncnc(Nc2cccc(CS(C)(=O)=NC(=O)COCCOCCOCC(=O)NCCCCCNc3cccc4c3C(=O)N(C3CCC(=O)NC3=O)C4=O)c2)n1 (configuration not stated) |  |  |  |  | 
11 | 0.0144 | 5.34 | 16.4 | 0.18 | 8.04 | 1.11 | 88.8 | 1.44 | 66 | 6.68 |  | COc1cc(F)ccc1-c1ncnc(Nc2cccc(CS(C)(=O)=NC(=O)CCCCCC(=O)NCCNc3cccc4c3C(=O)N(C3CCC(=O)NC3=O)C4=O)c2)n1 (configuration not stated) |  |  |  |  | 
12 | 0.0107 | 4.79 | 8.61 | 0.039 | 3.23 | 0.38 | 100 | 2.28 | 99 | 1.72 | 0.0312 | COc1cc(F)ccc1-c1ncnc(Nc2cccc(CS(C)(=O)=NC(=O)CCCCCCCCCC(=O)NCCNc3cccc4c3C(=O)N(C3CCC(=O)NC3=O)C4=O)c2)n1 (configuration not stated) |  |  |  |  | 
13 | 0.0102 | 5.18 | 3.36 | 0.07 | 3 | 0.13 | 98 | 3.21 | 98 | 1.75 |  | COc1cc(F)ccc1-c1ncnc(Nc2cccc(CS(C)(=O)=NC(=O)CCC(=O)CCC(=O)NCCNc3cccc4c3C(=O)N(C3CCC(=O)NC3=O)C4=O)c2)n1 (configuration not stated) |  |  |  |  | 
14 | 0.0139 | 8.02 | 4.15 | 0.45 | 1.42 | 0.47 | 95 | 11.9 | 65 | 3.5 |  | COc1cc(F)ccc1-c1ncnc(Nc2cccc(CS(C)(=O)=NC(=O)CCCCCC(=O)NCCCCCNc3cccc4c3C(=O)N(C3CCC(=O)NC3=O)C4=O)c2)n1 (configuration not stated) |  |  |  |  | 
15 |  | 5.52 | 2.7 | 0.56 | 2.94 | 0.2 | 0 | 3.29 | 0 | 1.47 |  | COc1cc(F)ccc1-c1ncnc(Nc2cccc(C[S@](C)(=N)=O)c2)n1 [ATUVECICLIB] | 15.7 | 78.6 | 4.99 | 21.1 | 0.26
